{"source": "patent US8796281B2", "about": "“Lighting device having at least one heat sink” (Jinan University, priority 2010, dated 2014)", "key": {"[1]": {"system": "aging accelerated mice", "settings": "intraperitoneally injected daily; cited from earlier work"}, "[2]": {"system": "24-month-old rats", "settings": "cited from earlier work"}, "[3]": {"settings": "in vivo; cited from earlier work"}, "[4]": {"system": "rats with ischemia caused by MCAo", "experiment": "Protection of rats having cerebral ischemia caused by MCAO (TTC, extent of cerebral infarction)", "assay_type": "in vivo", "settings": "65 mg/kg intravenously 1 hr after ischemia, 2 hrs ischemia, 24 hrs reperfusion, FIG. 4", "procedure": "Anesthesia was performed on rats (female SD rats, in body weight of 260-300 g) with intraperitoneal injection of 10% hydrated chloral hydrate in a dose of 400 mg/kg or with inhalation of 3.5% halothane. At the entrance of MCAO (Middle Cerebral Artery Occlusion Ischemia) was blocked with a nylon wire to cause cerebral ischemia. After ischemia occurred for 1 hr, the rats were respectively intravenously injected with EDA (63 mg/kg), TBN (80 mg/kg), TN-2 (65 mg/kg), and saline (control group). There were 6 rats in each group. After ischemia occurred for 2 hrs, the nylon wires were removed, and reperfusion was performed for 24 hrs. Brain tissues were taken and the cerebellums were removed. The material was rinsed in PBS solution, and put in a freezer set at −20° C. for a moment, and the brain tissues were cut into slices with a thickness of about 2 mm, and immediately placed in a solution of 0.5% triphenyltetrazolium chloride (TTC). Incubation was performed at 37° C. for 30 minutes. The extent of cerebral infarction was evaluated. […] In FIG. 4, the data were examined by one-tailed t-test; the mark “*” refers to the data in comparison with the control; drug dosage: TBN (80 mg/kg), and Edaravone (63 mg/kg); and each of the drugs were used in equal molarity."}, "[5]": {"system": "PC12 cells", "experiment": "Cytoprotection of PC12 cells against t-BHP-induced damage (MTT)", "assay_type": "cell-based, rats", "settings": "t-BHP 200 μM, FIG. 3", "procedure": "PC12 cells were inoculated in a 96-well plate of strong adsorption with 90 μL per well, cultured for 36 hrs in an incubator set at 37° C. and 5% CO2. After 36 hrs, each of the drugs was added in four concentration gradients. Cultured for half an hour in an incubator set at 37° C. and 5% CO2, replaced with serum-free medium, t-BHP ([…], final concentration of 200 μM) was added in each of the wells except the well of the control. Then the material was placed and cultured in an incubator for 24 hrs. The cells were cultured for 24 hrs, and MTT (15 μL, 5 mg/mL) was added in each of the wells. The material was cultured in an incubator for 4 hrs, and then DMSO ([…]) was added in each of the wells to be further incubated for at least half an hour to ensure the crystals were completely dissolved. The absorbance (A value) was measured by using a micro-plate reader at 570 nm."}, "[6]": {"system": "Dopaminergic neurons", "experiment": "Cytoprotection on injuries of dopaminergic neurons induced by MPP+", "assay_type": "cell-based", "settings": "500 μM, 50 μM and 5 μM, MPP+ 10 μM, FIG. 5", "procedure": "Dopaminergic neurons were cultured for 5 days, and L-Deprenyl, TMP and TN-2 were added in a concentration gradient of 500 μM, 50 μM and 5 μM respectively. Two hours later, MPP^+(with a final concentration of 10 μM) was added into each of the wells except those of the control."}, "[7]": {"settings": "32 mg/kg intraperitoneally daily for 9.5 months"}}, "note": "Entries after “also recorded” stand apart in the source; their conditions may differ.", "data": [{"smiles": "CC(C)(C)/[N+]([O-])=C/c1ccccc1", "note": "[PBN, Phenyl-tert-Butyl Nitrones]", "values": [{"measurement": "increase in the lifespan of the mice", "setting": "[1]", "value": 33, "unit": "%"}, {"measurement": "cognitive ability for older rats", "setting": "[2]; [7]", "value": "enhanced"}, {"measurement": "lipid peroxidation reactions in cerebral cortex and globus pallidus", "setting": "[2]; [7]", "value": "diminished"}, {"measurement": "rats still alive", "setting": "[2]; when the experiment was run for 32 months", "value": "7 of the 11"}]}, {"smiles": "Cc1nc(C)c(C)nc1C", "note": "[TMP, Tetramethylpyrazine]", "values": [{"measurement": "bioavailability", "setting": "[3]", "value": "low"}]}, {"smiles": "Cc1nc(/C=[N+](/[O-])C(C)(C)C)c(C)nc1/C=[N+](/[O-])C(C)(C)C", "note": "[TN-2]", "values": [{"measurement": "treatment effects on stroke of the rats (extent of cerebral infarction)", "setting": "[4]", "value": "significant treatment effects"}, {"measurement": "cytoprotection towards the t-BHP-induced cell damage", "setting": "[5]; 24 hrs, MTT absorbance at 570 nm", "value": "significant effect of cytoprotection; also recorded: significant protective effects"}, {"measurement": "intensity of the cytoprotective effect compared with TMP", "setting": "[5]", "value": "significantly higher than that of TMP"}, {"measurement": "cytoprotection to the MPP+-induced cell damage", "setting": "[6]", "value": "significant"}]}]}
